Read-outs that look alike come from different tables or passages of the source.

The target in series [1] is T1, Rhesus PDE2A3 (Macaca mulatta, UniProt B3VTJ2).
T1 construct: made in house; host or cells: AD293 cells, transiently transfected with pcDNA3.3-TOPO; lysate supernatant used
T1 sequence (B3VTJ2 1-941): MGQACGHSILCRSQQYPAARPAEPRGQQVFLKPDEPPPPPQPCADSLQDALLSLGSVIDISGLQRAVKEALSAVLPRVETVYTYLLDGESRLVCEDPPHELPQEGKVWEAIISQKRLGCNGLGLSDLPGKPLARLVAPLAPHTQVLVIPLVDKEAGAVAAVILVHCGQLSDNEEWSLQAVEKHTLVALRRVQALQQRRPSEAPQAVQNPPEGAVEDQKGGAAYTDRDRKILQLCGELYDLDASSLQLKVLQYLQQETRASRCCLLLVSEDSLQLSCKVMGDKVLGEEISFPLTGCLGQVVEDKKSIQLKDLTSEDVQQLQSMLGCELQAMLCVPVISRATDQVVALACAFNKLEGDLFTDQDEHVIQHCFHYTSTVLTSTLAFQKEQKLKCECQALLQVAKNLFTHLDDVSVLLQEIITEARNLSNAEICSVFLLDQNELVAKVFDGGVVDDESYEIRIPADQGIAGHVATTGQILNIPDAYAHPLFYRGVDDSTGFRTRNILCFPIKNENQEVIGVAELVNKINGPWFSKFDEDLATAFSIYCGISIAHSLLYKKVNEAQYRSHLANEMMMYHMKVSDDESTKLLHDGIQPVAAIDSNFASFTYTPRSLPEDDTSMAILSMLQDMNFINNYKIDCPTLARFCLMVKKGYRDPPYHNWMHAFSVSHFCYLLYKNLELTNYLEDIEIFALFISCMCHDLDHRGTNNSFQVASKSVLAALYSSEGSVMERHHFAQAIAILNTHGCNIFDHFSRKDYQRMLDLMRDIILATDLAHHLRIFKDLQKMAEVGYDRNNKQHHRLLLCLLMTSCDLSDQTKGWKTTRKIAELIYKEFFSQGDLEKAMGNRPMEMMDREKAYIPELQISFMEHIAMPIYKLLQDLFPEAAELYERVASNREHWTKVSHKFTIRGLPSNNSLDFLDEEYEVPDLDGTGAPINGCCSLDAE
In words: PDE2 fluorescence polarization (IMAP FP) inhibition assay, rhesus PDE2A3. It counts as biochemical, rhesus macaque. How it is done:
The activity of the compounds in accordance with the present invention as PDE2 inhibitors may be readily determined using a fluorescence polarization (FP) methodology (Huang, W., et al., J. Biomol Screen, 2002, 7: 215).
In a typical experiment the PDE2 inhibitory activity of the compounds of the present invention was determined in accordance with the following experimental method. Rhesus PDE2A3 was amplified from rhesus macaque brain cDNA (Biochain Institute, Hayward, Calif.) using primers based on human PDE2A sequence (accession NM_002599.3) where the forward primer containing a Kozak consensus was 5′-[…]-3′ and the reverse primer was 5′-[…]-3′. Amplification with Easy-A High-Fidelity PCR cloning enzyme (Stratagene, La Jolla, Calif.) was 95° C. for 2 minutes followed by thirty three cycles of 95° C. for 40 seconds, 52° C. for 30 seconds, and 72° C. for 2 minutes 48 seconds. Final extension was 72° C. for 7 minutes. The PCR product was TA cloned into pcDNA3.3-TOPO (Invitrogen, Carlsbad, Calif.) aaccording to standard protocol. A consensus sequence was developed from multiple clones and then deposited into GenBank (EU812167). AD293 cells (Stratagene, La Jolla, Calif.) with 70-80% confluency were transiently transfected with rhesus PDE2A3/pcDNA3.3-TOPO using Lipofectamine 2000 according to manufacturer specifications (Invitrogen, Carlsbad, Calif.). Cells were harvested 48 hours post-transfection and lysed by sonication (setting 3, 10×5 sec pulses) in a buffer containing 20 mM HEPES pH 7.4, 1 mM EDTA and Complete Protease Inhibitor Cocktail Tablets (Roche, Indianapolis, Ind.). Lysate was collected by centrifugation at 75,000×g for 20 minutes at 4° C. and supernatant utilized for evaluation of PDE2 activity. The fluorescence polarization assay for cyclic nucleotide phosphodiesterases was performed using an IMAP® FP kit supplied by Molecular Devices, Sunnyvale, Calif. (product # R8139). […] Assays were performed at room temperature in 384-well microtiter plates with an incubation volume of 20.2 μL. Solutions of test compounds were prepared in DMSO and serially diluted with DMSO to yield 8 μL of each of 10 solutions differing by 3-fold in concentration, at 32 serial dilutions per plate. […] 0% of inhibition is determined by using DMSO (1% final concentrations).
A Labcyte Echo 555 (Labcyte, Sunnyvale, Calif.) is used to dispense 200 nL from each well of the titration plate to the 384 well assay plate. Ten microliters of a solution of enzyme (1/2000 final dilution from aliquots; sufficient to produce 20% substrate conversion) was added to the assay plate. Next 10 uL of a separate solution of the substrate FAM-labeled cAMP (50 nM final concentration product # R7506 from Molecular Devices) and the activator cGMP (1 uM final concentration), prepared in the assay buffer (10 mM Tris HCl, pH 7.2, 10 mM MgCl2, 0.05% NaN3 0.01% Tween-20, and 1 mM DTT) was added to the assay plate and shaken to mix. The reaction is allowed to proceed at room temperature for 60 minutes. A binding solution is then made from the kit components, comprised of 80% Solution A, 20% Solution B and binding reagent at a volume of 1/600 the total binding solution. The enzymatic reaction is stopped by addition of 60 μL of the binding solution to each well of the assay plates and the plates are sealed and shaken for 30 seconds. The plate was incubated at room temperature for at least one hour prior to determining the fluorescence polarization (FP). The parallel and perpendicular fluorescence of each well of the plate was measured using a Tecan Genios Pro plate reader (Tecan, Switzerland) or Perkin Elmer EnVision™ plate reader (Waltham, Mass.). Fluorescence polarization (mP) was calculated from the parallel (S) and perpendicular (P) fluorescence of each sample well and the analogous values for the median control well, containing only substrate (So and Po), using the following equation: Polarization (mP)=1000*(S/So−P/Po)/(S/So+P/Po).

Series [2] deals with T2, human PDE2A1 (Homo sapiens, UniProt O00408).
T2 construct: GST; purchased BPS Bioscience (San Diego, Calif.) 60020; host or cells: insect cells
T2 sequence (O00408 1-920 isoform O00408-2): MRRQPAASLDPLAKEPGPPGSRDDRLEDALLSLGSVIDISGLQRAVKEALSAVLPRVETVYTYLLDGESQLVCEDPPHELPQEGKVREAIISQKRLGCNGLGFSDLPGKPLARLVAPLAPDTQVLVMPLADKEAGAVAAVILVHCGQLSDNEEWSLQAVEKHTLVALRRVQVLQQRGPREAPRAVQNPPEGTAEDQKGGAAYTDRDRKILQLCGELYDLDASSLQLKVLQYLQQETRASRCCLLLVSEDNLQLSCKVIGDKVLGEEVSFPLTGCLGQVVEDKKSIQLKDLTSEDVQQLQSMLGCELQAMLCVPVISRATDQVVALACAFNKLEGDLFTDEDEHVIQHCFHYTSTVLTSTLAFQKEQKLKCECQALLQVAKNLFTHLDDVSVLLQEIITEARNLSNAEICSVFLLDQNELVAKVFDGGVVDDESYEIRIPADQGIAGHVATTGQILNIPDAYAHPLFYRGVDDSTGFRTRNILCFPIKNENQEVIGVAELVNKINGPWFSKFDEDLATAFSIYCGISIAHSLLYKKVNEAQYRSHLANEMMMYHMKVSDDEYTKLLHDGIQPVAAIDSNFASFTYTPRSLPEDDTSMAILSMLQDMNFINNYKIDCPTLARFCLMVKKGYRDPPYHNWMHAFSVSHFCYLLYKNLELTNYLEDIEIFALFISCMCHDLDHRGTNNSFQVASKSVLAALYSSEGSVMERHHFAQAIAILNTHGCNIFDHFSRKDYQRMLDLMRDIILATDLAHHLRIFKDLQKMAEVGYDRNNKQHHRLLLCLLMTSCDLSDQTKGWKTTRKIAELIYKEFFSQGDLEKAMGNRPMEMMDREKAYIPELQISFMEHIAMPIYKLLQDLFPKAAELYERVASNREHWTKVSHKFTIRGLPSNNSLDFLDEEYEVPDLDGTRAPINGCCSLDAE
In words: IMAP FP PDE selectivity panel, human PDE2A1. The format is biochemical. In outline:
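IMAP FP read-out, run at room temperature in parallel with PDE1–11: enzyme at 20% substrate conversion, 50 nM FAM-cAMP containing 1000 nM cGMP, Tris pH 7.2/MgCl2/DTT buffer. Compounds as ten 3-fold dilutions. Reaction 60 min, stopped with binding reagent for 1 h before polarization measurement.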

For series [3], the system named is other PDE isoforms. Conditions: reported in Annual Reports in Medicinal Chemistry 42: 4-5, 2007; cited from earlier work.
The conditions of series [4]: reported in Annual Reports in Medicinal Chemistry 42: 4-5, 2007; cited from earlier work.
Where [5] appears, read: Lab A, read-out: Rhesus PDE2 Ki (nM) Lab A.
Setting [6] is: Lab B, read-out: Rhesus PDE2 Ki (nM) Lab B.

Regarding `CCc1cc(NC2(c3ccc(C(F)(F)F)c(F)c3)CC2)n2ncnc2n1` [Example 68, 5-Ethyl-N-{1-[3-fluoro-4-(trifluoromethyl)phenyl]cyclopropyl}[1,2,4]triazolo[1,5-a]pyrimidin-7-amine], the Ki in series [1] is 29 nM; in series [2] (Lab B, read-out: Human PDE2 Ki (nM) Lab B), 35 nM.

For the compound `CC(Nc1ccnc2ncnn12)c1ccc(C(F)(F)F)cc1` (stereo not shown) [Example 83, N-{1-[4-(Trifluoromethyl)phenyl]ethyl}[1,2,4]triazolo[1,5-a]pyrimidin-7-amine], the Ki in series [1] (setting [5]) turned out to be 4680 nM.

As to `CC(Nc1ccnc2ncnn12)c1ccc(OC(F)(F)F)cc1` (stereo not shown) [Example 84, N-{1-[4-(Trifluoromethoxy)phenyl]ethyl}[1,2,4]triazolo[1,5-a]pyrimidin-7-amine], the Ki in series [1] (setting [5]) is 2770 nM.

Consider `Cc1cc(N[C@@H](c2ccc(OC(F)(F)F)c(F)c2)C(C)(C)O)n2ncnc2n1` (single isomer, unassigned) [Example 92], for which the Ki in series [1] (setting [6]) worked out at 6.8 nM; in series [2] (Human PDE2 Ki (nM) Lab B), 5.4 nM.

For the compound `Cc1cc(NC(c2ccc(S(F)(F)(F)(F)F)cc2)C(C)(C)O)n2ncnc2n1` (single isomer, unassigned) [Example 117, (1R or S)-2-Methyl-1-[(5-methyl[1,2,4]triazolo[1,5-a]pyrimidin-7-yl)amino]-1-[4-(pentafluoro-λ^6-sulfanyl)phenyl] propan-2-ol], the results for the Ki in series [1] (setting [6]) and in series [2] (Human PDE2 Ki (nM) Lab B) were 5.6 nM and 4.6 nM, respectively.

Consider `Cc1cc(N[C@@H](c2ccc(C(F)(F)F)c(F)c2)C(C)(C)O)n2ncnc2n1` [Example 98, (1S)-1-[3-Fluoro-4-(trifluoromethyl)phenyl]-2-methyl-1-[(5-methyl [1,2,4]triazolo[1,5-a]pyrimidin-7-yl)amino]propan-2-ol], for which the values for the inhibitory constant (Ki) in series [1] (setting [6]) and in series [2] (Human PDE2 Ki (nM) Lab B) were 12 nM and 10 nM, respectively.

Consider `Cc1cc(NC2(c3ccc(C(F)(F)F)c(F)c3)CC2)n2ncnc2n1` [Example 57, N-{1-[3-Fluoro-4-(trifluoromethyl)phenyl]cyclopropyl}-5-methyl [1,2,4]triazolo[1,5-a]pyrimidin-7-amine], for which the results for the Ki in series [1] (setting [6]) and in series [2] (Human PDE2 Ki (nM) Lab B) were 22 nM and 21 nM, respectively.

Take `COc1ccc(Cc2nn3c([C@@H](CCCc4ccccc4)[C@@H](C)O)nc(C)c3c(=O)[nH]2)cc1OC` [BAY 60-7550]: the “potency at other PDE isoforms” value in series [3] is recorded as “significant potency”. In series [4], the brain penetration entry is listed as “limited”.

For the compound `Cc1cc(NC2(c3ccc(C(F)(F)F)cc3)CC2)n2ncnc2n1` [Example 56, 5-Methyl-N-{1-[4-(trifluoromethyl)phenyl]cyclopropyl}[1,2,4]triazolo[1,5-a]pyrimidin-7-amine], the inhibition constant (Ki) turned out to be 61 nM in series [1] (setting [6]) and 79 nM in series [2] (Human PDE2 Ki (nM) Lab B).

The values above are taken from US10357481B2 (MERCK SHARP & DOHME CORP., priority 2015, dated 2019).
